{"source": "paper PMC5225183", "about": "“Fingerprinting of neurotoxic compounds using a mouse embryonic stem cell dual luminescence reporter assay” (Archives of Toxicology, 2016)", "key": {"[1]": {"experiment": "PBPK reverse modeling of nominal equivalent concentration (NEC), human data", "procedure": "To evaluate the human relevance of in vitro concentrations found to be toxic in this study, an in vitro–in vivo comparison of the toxicity data was performed using a physiology-based pharmacokinetic (PBPK) reverse modeling approach. […] The lipid content and albumin concentrations of the test media N2 and BHK medium were calculated on the basis of the available information provided by the suppliers (Fig. S2A). The data on rat plasma have been adopted from (Verwei et al. [2006]). The original references are (Barber et al. [1990]) for albumin and (DeJongh et al. [1997]) for lipids. Human plasma values were taken from (Gulden and Seibert [2003]). The original data on albumin are from (Lindup [1987]) and for lipids from (Patterson et al. [1988]). Total protein concentrations were calculated based on the assumption that the protein molar mass is similar to the one of albumin (66 kDa). Albumin was assumed to represent 60 and 48 % of the total serum proteins (mg/ml) in human and rat (Baker et al. [1979]; Busher [1990]) (Fig. S2A).\n(a) Developmental toxicity (DT)—inducing concentrations were extrapolated from the in vivo study reported in the document by the Australian Therapeutic Goods Administration (Australian Therapeutic Goods Administration [2014]). In an embryo-fetal developmental toxicity study in rats, abiraterone acetate induced developmental toxicity when administered at oral doses of 10, 30 or 100 mg/kg/day throughout the period of organogenesis (gestational days 6–17). Findings include embryo-fetal lethality (increased postimplantation loss and decreased number of living fetuses), fetal developmental delay (skeletal effects), and urogenital effects (bilateral ureter dilation) at doses ≥10 mg/kg/day (Australian Therapeutic Goods Administration [2014]). (b) Toxicokinetic parameters of abiraterone in rats were extracted from the available report from the TGA (Australian Therapeutic Goods Administration [2014]). […] The average concentration (Cavg) was calculated from the ratio of AUC and the dose interval (τ) of 24 h. The percentage of plasma protein binding of the drug was reported as being 99.8 %, without relevant species differences occurring (US FDA [2011]). (c) The nominal in vitro concentrations equivalent to the concentration used in vivo were calculated using the value of total protein concentration instead of albumin concentration.\nClinical signs included malrotated forepaws/hindpaws, discoloration of the body surface, impaired coat growth, eye opacity, and eye discharge with absence of pupillary reflex were observed (US FDA [2012]). […] The Cavg was calculated as the ratio of AUC and the dose interval (τ) of 24 h. TF is reported to be extensively bound in plasma, probably mostly to albumin, with an average bound fraction of 99.46 % (Russo et al. [2013]). (c) The nominal in vitro concentrations equivalent to the concentration used in vivo in rats and humans (Cmax and Cavg) were determined assuming only binding to the specific drug-binding proteins (albumin and/or α1-acid glycoprotein) (Fig. S2D).\nTo compare the effective/toxic concentrations found in our study with relevant in vivo concentrations, we used a reverse pharmacokinetic modeling approach for three exemplary compounds: teriflunomide, geldanamycin, and abiraterone. Firstly, we used a literature data mining approach to identify toxic or clinically relevant plasma concentrations reported in published animal studies (in relation to developmental toxicity or neurotoxicity) or clinical measurements (mostly in relation to drug efficacy). Then those values were used as points-of-departure to calculate the nominal equivalent concentrations (NEC) in both cell culture media used in our study, the BHK and N2 medium. These two media (used to expose the ESCs and the ESC-derived neurons) contained different amounts of protein and lipid and therefore required separate calculations of the NEC. […]"}, "[2]": {"experiment": "Toxicokinetics in rats", "type": "in vivo", "conditions": "plasma, rat"}, "[3]": {"test_system": "Thy1-GFP transgenic rats", "design": "method as in Sun et al. [2012]", "conditions": "ref Sun et al. [2012]; cited from earlier work"}, "[4]": {"test_system": "mice", "design": "method as in https://www.spectrumchemical.com/MSDS/TCI-G0334.pdf", "conditions": "ref https://www.spectrumchemical.com/MSDS/TCI-G0334.pdf; cited from earlier work"}, "[5]": {"design": "method as in Supko et al. [1995]", "conditions": "mouse, i.v.; ref Supko et al. [1995]; cited from earlier work"}, "[6]": {"test_system": "plasma protein", "experiment": "Plasma protein binding (plasma bound fraction)", "type": "in vitro ADME", "conditions": "assumed, no specific indications found", "procedure": "The lipid content and albumin concentrations of the test media N2 and BHK medium were calculated on the basis of the available information provided by the suppliers (Fig. S2A). The data on rat plasma have been adopted from (Verwei et al. [2006]). The original references are (Barber et al. [1990]) for albumin and (DeJongh et al. [1997]) for lipids. Human plasma values were taken from (Gulden and Seibert [2003]). The original data on albumin are from (Lindup [1987]) and for lipids from (Patterson et al. [1988]). Total protein concentrations were calculated based on the assumption that the protein molar mass is similar to the one of albumin (66 kDa). […]\n(a) Developmental toxicity (DT)—inducing concentrations were extrapolated from the in vivo study reported in the document by the Australian Therapeutic Goods Administration (Australian Therapeutic Goods Administration [2014]). […] (c) The nominal in vitro concentrations equivalent to the concentration used in vivo were calculated using the value of total protein concentration instead of albumin concentration. […]\n(c) The nominal in vitro concentrations equivalent to the concentration used in vivo in rats and humans (Cmax and Cavg) were determined assuming only binding to the specific drug-binding proteins (albumin and/or α1-acid glycoprotein) (Fig. S2D)."}, "[7]": {"conditions": "cited from earlier work"}, "[8]": {"test_system": "neuronal precursor cells derived from human embryonic stem cells", "design": "method as in Waldmann et al. [2014]", "conditions": "ref Waldmann et al. [2014]; cited from earlier work"}, "[9]": {"test_system": "neuroepithelial precursor cell migration", "design": "method as in Zimmer et al. [2012]", "conditions": "ref Zimmer et al. [2012]; cited from earlier work"}, "[10]": {"test_system": "neural crest cell migration", "design": "method as in Zimmer et al. [2012]", "conditions": "ref Zimmer et al. [2012]; cited from earlier work"}, "[11]": {"conditions": "Sprague Dawley, oral, rats, 0.3 mg/kg, estimated proportional to reported kinetics at 1 mg/kg (US FDA [2012])"}}}
{"smiles": "C[C@]12CC[C@H](O)CC1=CC[C@@H]1[C@@H]2CC[C@]2(C)C(c3cccnc3)=CC[C@@H]12", "note": "[Abiraterone]", "values": [{"measurement": "Free concentration in vivo", "setting": "[1]; Cavg", "value": 0.353, "unit": "pM"}, {"measurement": "Total concentration in vivo (ECpl)", "setting": "[1]; Cavg", "value": 0.14, "unit": "µM"}, {"measurement": "Free concentration in vivo", "setting": "[1]; Cmax", "value": 1.63, "unit": "pM"}, {"measurement": "Total concentration in vivo (ECpl)", "setting": "[1]; Cmax", "value": 0.647, "unit": "µM"}]}
{"smiles": "COC1=C2C[C@@H](C)C[C@H](OC)[C@H](O)[C@@H](C)/C=C(\\C)[C@H](OC(N)=O)[C@@H](OC)/C=C\\C=C(/C)C(=O)NC(=CC1=O)C2=O", "note": "[Geldanamycin]", "values": [{"measurement": "Cmax", "setting": "[2]; Thy1-GFP transgenic, dose of 0.2 mg/kg, calculated from mouse volume of distribution", "value": 1250, "unit": "ng/mL"}, {"measurement": "dose affecting nerve recovery / neurodifferentiation", "setting": "[3]", "value": 0.2, "unit": "mg/kg/day"}, {"measurement": "LD50", "setting": "[4]", "value": 1, "unit": "mg/kg"}, {"measurement": "initial volume of distribution", "setting": "[5]", "value": 0.16, "unit": "L/kg"}, {"measurement": "fb,pl (plasma bound fraction)", "setting": "[6]", "value": 99, "unit": "%"}, {"measurement": "aqueous solubility", "setting": "[7]", "value": "poor"}]}
{"smiles": "C/C(O)=C(\\C#N)C(=O)Nc1ccc(C(F)(F)F)cc1", "note": "[Teriflunomide]", "values": [{"measurement": "AUC", "setting": "[2]; [11]", "value": "~33000", "unit": "ng·h/mL"}, {"measurement": "Cmax", "setting": "[2]; [11]", "value": "~3000", "unit": "ng/mL"}, {"measurement": "Free concentration in vivo", "setting": "[1]; Cavg", "value": 280000, "unit": "pM"}, {"measurement": "Total concentration in vivo (ECpl)", "setting": "[1]; Cavg", "value": 165, "unit": "µM"}]}
{"smiles": "CCCC(CCC)C(=O)O", "note": "[Valproic acid]", "values": [{"measurement": "range of tolerance", "setting": "[8]", "value": "up to 25 μM"}, {"measurement": "concentration not affecting neuroepithelial precursor cell migration", "setting": "[9]", "value": "> 1", "unit": "mM"}, {"measurement": "concentration inhibiting neural crest cell migration", "setting": "[10]", "value": "10 to 100", "unit": "µM"}]}
